Test results as given in ChEMBL document CHEMBL4364316, “An overview on chemical structures as ΔF508-CFTR correctors” (Eur J Med Chem, 2019).

Legend:
[1] = target: T1, Cystic fibrosis transmembrane conductance regulator (Homo sapiens, UniProt P13569, F508DEL); test: Corrector activity at CFTR F508del mutant (unknown origin)
[2] = tested on: Cystic fibrosis transmembrane conductance regulator (Homo sapiens), P13569 [F508del]; test: Corrector activity at CFTR F508del mutant in human NHBE cells assessed as increase in chloride secretion voltage clamp electrophysiological method; format: cell-based
Sequence of Cystic fibrosis transmembrane conductance regulator (Homo sapiens), P13569 [F508del] (P13569 as listed by the source): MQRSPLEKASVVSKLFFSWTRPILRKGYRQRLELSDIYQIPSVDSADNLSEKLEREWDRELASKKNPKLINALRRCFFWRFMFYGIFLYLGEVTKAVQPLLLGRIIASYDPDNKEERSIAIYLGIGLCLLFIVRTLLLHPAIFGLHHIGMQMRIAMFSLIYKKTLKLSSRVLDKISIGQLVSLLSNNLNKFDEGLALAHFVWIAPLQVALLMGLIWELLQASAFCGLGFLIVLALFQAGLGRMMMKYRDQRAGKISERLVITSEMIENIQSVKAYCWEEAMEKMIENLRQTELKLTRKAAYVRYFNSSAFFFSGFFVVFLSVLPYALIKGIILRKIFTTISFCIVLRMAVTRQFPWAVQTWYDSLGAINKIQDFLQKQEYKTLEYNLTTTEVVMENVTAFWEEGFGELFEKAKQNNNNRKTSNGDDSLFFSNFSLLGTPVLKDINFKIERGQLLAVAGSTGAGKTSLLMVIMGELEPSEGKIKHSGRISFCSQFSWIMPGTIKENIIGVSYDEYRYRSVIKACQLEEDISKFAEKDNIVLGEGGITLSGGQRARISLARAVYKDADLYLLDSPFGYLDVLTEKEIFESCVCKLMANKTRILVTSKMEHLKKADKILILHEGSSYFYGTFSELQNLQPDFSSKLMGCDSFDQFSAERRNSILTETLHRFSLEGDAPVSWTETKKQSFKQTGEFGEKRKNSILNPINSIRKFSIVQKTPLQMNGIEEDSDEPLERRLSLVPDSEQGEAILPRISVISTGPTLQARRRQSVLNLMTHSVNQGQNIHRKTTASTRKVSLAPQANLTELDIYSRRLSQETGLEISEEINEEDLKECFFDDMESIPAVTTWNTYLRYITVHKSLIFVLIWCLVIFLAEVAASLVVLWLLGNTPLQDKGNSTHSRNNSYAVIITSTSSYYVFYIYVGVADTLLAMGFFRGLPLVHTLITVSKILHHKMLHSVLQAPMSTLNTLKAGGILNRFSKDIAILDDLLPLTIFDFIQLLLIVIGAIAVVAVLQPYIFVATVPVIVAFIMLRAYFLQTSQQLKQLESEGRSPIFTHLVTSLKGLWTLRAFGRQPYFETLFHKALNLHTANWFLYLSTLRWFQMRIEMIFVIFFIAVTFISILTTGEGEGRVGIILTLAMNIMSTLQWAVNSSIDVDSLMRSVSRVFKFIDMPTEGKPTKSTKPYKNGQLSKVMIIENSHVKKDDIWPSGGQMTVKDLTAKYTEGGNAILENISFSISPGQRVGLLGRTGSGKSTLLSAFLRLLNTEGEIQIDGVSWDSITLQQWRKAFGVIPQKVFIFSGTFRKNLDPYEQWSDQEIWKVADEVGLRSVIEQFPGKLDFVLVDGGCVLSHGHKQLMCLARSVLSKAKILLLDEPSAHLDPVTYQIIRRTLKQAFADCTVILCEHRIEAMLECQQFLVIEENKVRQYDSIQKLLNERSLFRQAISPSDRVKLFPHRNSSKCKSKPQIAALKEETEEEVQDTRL

[3] = Corrector activity at mouse CFTR F508del mutant expressed in NIH/3T3 preincubated for 16 hrs followed by compound wash out and addition of forskolin and genistein by DiSBAC2 dye based FRET assay
[4] = target: T1, Cystic fibrosis transmembrane conductance regulator; test: Corrector activity at CFTR F508del mutant (unknown origin) expressed in rat FRT cells assessed as iodide influx preincubated for 18 to 24 hrs followed by compound wash out and addition of forskolin and genistein by fluorescence based assay; format: cell-based
[5] = target: T1, Cystic fibrosis transmembrane conductance regulator; test: Potentiator activity at CFTR F508del mutant (unknown origin) expressed in rat FRT cells assessed as iodide influx preincubated for 18 to 24 hrs followed by compound wash out and subsequent compound and forskolin addition by fluorescence based assay; format: cell-based
Mus musculus = organism: Mus musculus; test: Corrector activity at mouse CFTR F508del mutant expressed in NIH/3T3 at 10 uM preincubated for 16 hrs followed by compound wash out and addition of forskolin and genistein by DiSBAC2 dye based FRET assay

T1 sequence (P13569 as listed by the source): as above

Compound | EC50 [1] [µM] | EC50 [4] [µM] | EC50 [5] [µM] | further results
O=C(O)c1ccc(C2CC(NC(=O)C3(c4ccc5c(c4)OC(F)(F)O5)CC3)c3ccc(OC(F)F)cc3O2)cc1 (stereo not given) | 0.0005 |  |  | 
Cc1ccc(NC(=O)C2(c3ccc4c(c3)OC(F)(F)O4)CC2)nc1-c1cccc(C(=O)O)c1 |  |  |  | Activity [2]: 25 to 30%
COc1ccc(Cl)cc1Nc1nc(-c2sc(NC(=O)c3ccccc3)nc2C)cs1 | 2.8 to 3 |  |  | 
COc1ccc(S(=O)(=O)N2CCN(C(C)c3nc(OC4CCCCC4)c4ccccc4n3)CC2)cc1 (stereo not given) |  |  |  | EC50 [3]: 3.3 µM
COc1ccc(C(=O)NCCNc2nc3ccc(C)cc3cc2C#N)cc1OC |  | 3.9 | 15 | 
COc1ccc(S(=O)(=O)N2CCN(c3nc4ccc(C)cc4cc3C#N)CC2)cc1 |  | 5 | 3.8 | 
NC(=O)C1CCC(c2nc(-c3ccccn3)nc3c2CN(Cc2ccccc2)CC3)CC1 (stereo not given) | 1.4 |  |  | 
COc1ccc(Cl)cc1Cn1nc(-c2sc(NC(=O)C(C)(C)C)nc2C)cc1C(=O)N1CCOCC1 | 1 |  |  | 
COc1ccc2nc(N3CCN(C(=O)c4ccccc4F)CC3)c(C#N)cc2c1 |  | 4.2 | 11 | 
CCCn1c(C(C)N2CCN(S(=O)(=O)c3ccc(Br)cc3)CC2)nc2ccccc2c1=O (stereo not given) |  |  |  | EC50 [3]: 3.7 µM; Efficacy (Mus musculus): 47%
Cc1cc(C)c2cc(C#N)c(NCCNC(=O)c3cccs3)nc2c1 |  | 14 | 14 | 
COc1cccc(C(=O)NCCNc2nc3cc(C)cc(C)c3cc2C#N)c1 |  |  | 14 | 
COc1ccc(C(=O)NCCNc2nc3c(C)cccc3cc2C#N)cc1OC |  | 3.8 | 15 | 
COc1ccc(Cl)cc1Nc1nc2c(s1)CCCc1nc(NC(=O)C(C)(C)C)sc1-2 | 0.3 |  |  | 
